Assay results taken from patent US20180215788A1, “Compounds and Compositions for the Treatment of Ophthalmic Disorders” (Shire Human Genetic Therapies, Inc., priority 2017, published 2018).
*1 amine or outer side, *2 acyl side, *3 side chain or, on linkers, in order; H or OH if unused. Where a SMILES comes first, the peptide text is derived from it. [ ]: non-standard residue; d: D form. The star is where a group is joined. dOrn(Me2) = CN(C)CCC[C@@H](N)C(=O)O; X1 = O=C([C@H]1CCCN([*:1])C1)[*:2]; Hyp = O=C(O)[C@@H]1C[C@@H](O)CN1; NMeL = CN[C@@H](CC(C)C)C(=O)O; Octanoyl = CCCCCCCC(=O)*

Tested on: normotensive dogs
Experiment: Pharmacodynamics (IOP) after single topical ocular dose of SEQ ID NO:1, latanoprost or their combination
Type: in vivo
Conditions: for maximum percent change in intraocular pressure compared to contralateral eye / intraocular pressure: female dogs; for maximum percent change in intraocular pressure compared to contralateral eye: 0.03% SEQ ID NO:1, 0.005% latanoprost, alone or adjunctive, FIG. 6; for intraocular pressure: topical ocular 0.005% latanoprost, 0.03% SEQ ID NO:1, alone or adjunctively, FIG. 7
Procedure: A study of the pharmacodynamics following a single ascending topical ocular dose of SEQ ID NO:1; latanoprost; or a latanoprost/SEQ ID NO:1 combination was undertaken in normotensive dogs.
Animals were not fasted prior to dose administration. As appropriate, latanoprost was administered first followed by SEQ ID NO:1 approximately 5 minutes later. […] After the dose was administered, the eye was allowed to close naturally. Each animal was then restrained for approximately 1 minute to prevent rubbing of the eyes. The right eye was dosed first. All measurement and collection times were based on the time of dosing of the second (left) eye.
Following arrival, animals were preconditioned (trained) to IOP measurement procedures three times daily (i.e. 07:00, 12:00, and 15:00±0.5 hours) at least three times/week for approximately seven weeks prior to Phase 1. Three readings/eye were taken using a TonoVet.
Intraocular pressure was measured at −1, 0 (predose), 1, 2, 4, 8, 12, 24, and 48 hours postdose (following the last dose, as applicable) for all animals in Group 1, Phases 1 through 10. Three readings/eye were taken using a TonoVet.
Animals selected for pharmacodynamics (Group 1) were administered SEQ ID NO:1 (12, 35, 105, or 210 μg/eye), latanoprost (0.35, 0.875, or 1.75 μg/eye), and latanoprost/SEQ ID NO:1 in combination to the right eye (OD) and vehicle or phosphate-buffered saline (PBS) to the left eye (OS).
Intraocular pressure (IOP) was measured at various time points from pre-dose to 48 hours post-dose.
Pharmacodynamic animals (Group 1) were unilaterally treated with a single topical ocular dose of latanoprost (0.001, 0.0025, and 0.005%), followed by approximately 5 minutes later with a dose of SEQ ID NO:1 0.03%, in the right eye (OD) only.

Compound	maximal delta decrease (Emax) in IOP, latanoprost dose response (dogs, latanoprost 0.001, 0.0025, 0.005% with SEQ ID NO:1 0.03%, FIG. 4)	maximum percent change in intraocular pressure compared to contralateral eye	intraocular pressure
CC(C)OC(=O)CCC/C=C\C[C@@H]1[C@@H](CC[C@@H](O)CCc2ccccc2)[C@H](O)C[C@@H]1O [latanoprost]	greater with increasing latanoprost concentrations, in combination with SEQ ID NO:1	21%	12 mmHg
CCCCCCCC(=O)N1CCC[C@H](C(=O)N[C@@H](Cc2ccccc2)C(=O)N[C@H](CCCN(C)C)C(=O)N[C@@H](CC(C)C)C(=O)N2C[C@H](O)C[C@H]2C(=O)N(C)[C@@H](CC(C)C)C(=O)N[C@@H](CC(=O)O)C(=O)N[C@@H](CCCNC(=N)N)C(=O)N[C@H](C(N)=O)[C@@H](C)CC)C1 [SEQ ID NO:1, Occ-Sni-Phe-orn(Me2)-Leu-Hyp-Nml-Asp-Arg-Ile-NH2] (Octanoyl-[X1]F[dOrn(Me2)]L[Hyp][NMeL]DRI-NH2)	–	16%	12 mmHg
